# In PubChem BioAssay (NCI):
#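 Protocol summary: plate cells (96-well), add compound at 5 concentrations, incubate 48 h, interpolate endpoints linearly. GI50: concentration for 50% inhibition of growth. TGI denotes the concentration required for complete inhibition of growth.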
# Assays:
# Assay in all cases: growth of human tumour cells (NCI), 48 h
# [1] = test system: NCI-H460 lung
# [2] = test system: NCI/ADR-RES ovarian
# [3] = test system: SK-MEL-28 melanoma
# [4] = test system: K-562 leukemia
# [5] = test system: SNB-19 CNS
# [6] = test system: A549 NSCLC
# [7] = test system: NCI-H522 lung
# [8] = test system: PC-3 prostate
# [9] = test system: RPMI-8226 leukemia
# [10] = test system: HCC-2998 colon
# [11] = test system: MDA-N
# [12] = test system: T-47D breast
# [13] = test system: KM12 colon
# [14] = test system: HCT-116 colon
Compound,TGI [1] [µM],TGI [2] [µM],TGI [3] [µM],TGI [4] [µM],TGI [5] [µM],TGI [6] [µM],TGI [7] [µM],TGI [8] [µM],TGI [9] [µM],TGI [10] [µM],TGI [11] [µM],TGI [12] [µM],TGI [13] [µM],TGI [14] [µM],GI50 [2] [µM],GI50 [3] [µM],GI50 [5] [µM],GI50 [13] [µM],GI50 [14] [µM]
OC(CC(CC(O)(C(F)(F)Cl)C(F)(F)Cl)=NNc1ccccc1)(C(F)(F)Cl)C(F)(F)Cl,7.85,8.62,8.06,> 10,> 10,> 10,> 10,4.7,> 10,> 10,7.81,9.42,7.54,3.89,,,,,
FC(F)(F)c1nc2ccc(SSc3ccc4nc(C(F)(F)F)[nH]c4c3)cc2[nH]1,75.1,> 100,> 100,> 100,> 100,> 100,> 100,> 100,65,> 100,> 100,> 100,> 100,> 100,> 100,> 100,> 100,> 100,> 100
COC1(C(C)(C)C)C=C(C(C)(C)C)P(=O)(O)O1 (stereo not given),> 100,> 100,> 100,> 100,> 100,> 100,> 100,> 100,> 100,> 100,> 100,> 100,> 100,> 100,,,,,
C=C1CC(Cn2ccc(=O)[nH]c2=O)(c2ccc(-c3ccccc3)cc2)OC1=O (stereo not given),28.4,4.64,5.34,1.53,34,24.9,2.39,7.52,1.29,4.12,3.5,6.45,12.9,0.892,,,,,
CC1CC(C)[C@H](O)C([C@H](O)CC2CC(=O)N(C)C(=O)C2)C1 (stereo not given in full),> 100,> 100,> 100,> 100,> 100,> 100,> 100,> 100,> 100,> 100,> 100,> 100,> 100,> 100,,,,,
Nc1nc(Cl)c(N)c(NCC2(CO)CC(Cc3ccccc3)C2)n1 (stereo not given),> 100,> 100,> 100,> 94.3,> 100,> 100,> 100,> 100,> 78.8,> 100,> 100,> 100,> 100,> 100,,,,,
C[n+]1noc(/N=N\[O-])c1-c1cc(-c2c(/N=N\[O-])on[n+]2C)cc(-c2c(/N=N/[O-])on[n+]2C)c1,> 100,> 100,> 100,> 100,> 100,> 100,> 100,> 100,> 100,> 100,> 100,> 100,> 100,> 100,,,,,
CO[C@H]1O[C@@H]2CO[C@@H](c3ccccc3)O[C@H]2[C@@H]2CC=CCC[C@]12O,> 100,> 100,> 100,> 100,> 100,> 100,31,> 100,90.1,51.7,> 100,> 100,> 100,> 100,,,,,
CCOC(=O)[C@@H]1C[C@H]1c1ccc(O)c(O)c1,> 100,> 100,> 100,51.3,> 100,> 100,47.2,> 100,> 100,91.9,37.8,88.1,> 100,28.6,,,,,
COC(=O)Nc1nc2ccc(Oc3ccc4nc(NC(=O)OC)[nH]c4c3)cc2[nH]1,> 100,> 100,> 20.4,> 45.2,> 100,> 100,> 100,> 78.5,> 26.7,> 22.7,> 100,> 100,> 62.5,> 100,,,,,
CCC(C)C(C(=O)N/N=C1/SCC(=O)N1C)C(=O)N/N=C1/SCC(=O)N1C (stereo not given),> 100,> 100,> 100,> 100,> 100,> 100,> 100,> 100,> 100,> 100,> 100,> 100,> 100,> 100,,,,,
CNC(=O)CCNC(=O)CCC(=O)N(C)C,> 100,> 100,> 100,> 100,> 100,> 100,> 100,> 100,> 100,> 100,> 100,> 100,> 100,> 100,,,,,
COc1cc(O)c2c(=O)c(OC)c(-c3ccc4c(c3)OCO4)oc2c1,> 100,> 100,> 100,> 100,> 84.1,> 100,> 100,> 100,> 100,> 100,> 100,> 100,> 100,> 100,,,,,
CCOC(=O)N1CCN(c2c(C)nc(C)[nH]c2=O)CC1,> 100,> 100,> 100,> 100,> 100,> 100,> 100,> 100,> 100,> 100,> 100,> 100,> 100,> 100,,,,,
CC(=O)NC1=C(C)C(=O)c2c(nc3n2CCC3OC(=O)c2ccccc2)C1=N (stereo not given),3.07,8.52,3.45,5.65,11.7,11,7.47,6.85,4.34,3.79,0.347,10.9,11.6,21.2,,,,,
